This note sets out measurements from patent US10717716B2, “1,3,4-oxadiazole derivative compounds as histone deacetylase 6 inhibitor, and the pharmaceutical composition comprising the same” (Chong Kun Dang Pharmaceutical Corp., priority 2015, dated 2020).

The target in this experiment is T1, human recombinant HDAC6 (Homo sapiens, UniProt Q9UBN7).
T1 construct: purchased Calbiochem 382180
T1 sequence (Q9UBN7 1-1215): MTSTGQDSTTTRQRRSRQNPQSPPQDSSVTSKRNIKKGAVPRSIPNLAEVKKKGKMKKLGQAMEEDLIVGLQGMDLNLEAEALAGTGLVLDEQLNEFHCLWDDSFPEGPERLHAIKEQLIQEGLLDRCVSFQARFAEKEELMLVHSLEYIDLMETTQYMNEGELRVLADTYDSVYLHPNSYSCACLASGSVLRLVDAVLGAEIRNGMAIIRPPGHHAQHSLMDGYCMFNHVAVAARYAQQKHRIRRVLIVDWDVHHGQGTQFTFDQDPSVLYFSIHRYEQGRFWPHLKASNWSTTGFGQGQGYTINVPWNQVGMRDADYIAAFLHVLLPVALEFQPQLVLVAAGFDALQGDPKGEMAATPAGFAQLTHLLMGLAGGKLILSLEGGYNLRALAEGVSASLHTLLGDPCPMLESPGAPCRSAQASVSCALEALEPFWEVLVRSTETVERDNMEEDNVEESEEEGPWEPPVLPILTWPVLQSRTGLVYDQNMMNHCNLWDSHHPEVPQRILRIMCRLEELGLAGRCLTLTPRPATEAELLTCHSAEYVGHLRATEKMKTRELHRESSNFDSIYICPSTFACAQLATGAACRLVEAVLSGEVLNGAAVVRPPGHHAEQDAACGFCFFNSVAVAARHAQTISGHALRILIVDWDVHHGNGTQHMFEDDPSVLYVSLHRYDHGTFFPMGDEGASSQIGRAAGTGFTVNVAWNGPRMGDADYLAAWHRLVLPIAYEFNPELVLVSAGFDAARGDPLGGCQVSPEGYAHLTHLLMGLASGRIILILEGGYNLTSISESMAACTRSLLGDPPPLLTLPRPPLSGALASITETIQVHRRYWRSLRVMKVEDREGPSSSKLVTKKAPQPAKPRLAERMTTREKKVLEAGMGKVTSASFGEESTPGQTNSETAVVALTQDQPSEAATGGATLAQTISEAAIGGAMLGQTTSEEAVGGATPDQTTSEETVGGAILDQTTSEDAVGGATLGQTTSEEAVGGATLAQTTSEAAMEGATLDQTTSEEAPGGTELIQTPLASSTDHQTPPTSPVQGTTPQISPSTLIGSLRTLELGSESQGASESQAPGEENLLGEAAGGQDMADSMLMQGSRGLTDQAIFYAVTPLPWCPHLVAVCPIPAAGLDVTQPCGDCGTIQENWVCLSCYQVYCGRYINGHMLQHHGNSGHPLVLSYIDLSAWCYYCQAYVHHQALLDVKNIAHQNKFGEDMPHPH
The experiment can be described thus: HDAC6 enzyme activity inhibition assay (HDAC Fluorimetric Drug Discovery Kit). Type of experiment: biochemical. The note with it: for HDAC6 selectivity (fold): HDAC6 over HDAC1; for IC50: human recombinant HDAC6, same protocol as HDAC1, read-out: HDAC6. As for the experimental part:
In order to examine the HDAC6 selectivity of the compounds of formula I of the present invention by HDAC1 and HDAC6 enzymatic activity inhibition assays, an experiment was performed using a conventional substance as a control.
HDAC enzyme activity was measured using a HDAC Fluorimetric Drug Discovery Kit (BML-AK511, 516, Enzo Life Science). For the HDAC1 enzyme activity test, human recombinant HDAC1 (BML-SE456) was used as an enzyme source, and Fluor de Lys®-“SIRT1 (BNL-KI177) was used as a substrate. A 5-fold dilution of the compound was seeded into a 96-well plate, and then 0.3 μg of the enzyme and 10 μM of the substrate were added to each well of the plate and allowed to react at 30° C. for 60 minutes. Then, Fluor de Lys®-Developer II (BML-KI176) was added thereto and allowed to react for 30 minutes, after which the fluorescence value (Ex 360, Em 460) was measured using a multi-plate reader (Flexstation 3, Molecular Device). The HDAC6 enzyme was tested using human recombinant HDAC6 (382180) (Calbiochem) according to the same protocol as the HDAC1 enzyme activity test method. Based on the resulting values, each IC5, value was calculated using GraphPad Prism4.0 program.

On to `CCNC(=O)N(Cc1ccc(-c2nnc(C(F)(F)F)o2)cc1)c1ccccc1` [Compound 21353, 3-Ethyl-1-phenyl-1-(4-(5-(trifluoromethyl)-1,3,4-oxadiazol-2-yl)benzyl)urea], for which the “HDAC6 selectivity (fold)” value turned out to be 14 fold and the IC50 is 720 nM.
In the case of `CCCNC(=O)N(Cc1ccc(-c2nnc(C(F)(F)F)o2)cc1)c1ccccc1` [Compound 21354, 1-Phenyl-3-propyl-1-(4-(5-(trifluoromethyl)-1,3,4-oxadiazol-2-yl)benzyl)urea], the “HDAC6 selectivity (fold)” value came to 26 fold and the IC50 was determined as 380 nM.
Take `O=C(N1CCOCC1)N(Cc1ccc(Cc2nnc(C(F)(F)F)o2)cc1)c1ccccc1` [Compound 21355, N-phenyl-N-(4-((5-(trifluoromethyl)-1,3,4-oxadiazol-2-yl)methyl)benzyl)morpholine-4-carboxamide]: the “HDAC6 selectivity (fold)” value amounted to 1 fold and the IC50 stood at 6910 nM.
On the same counts, the results for `O=C(NCC1CCOCC1)N(Cc1ccc(-c2nnc(C(F)(F)F)o2)cc1)c1ccccc1` [Compound 21357, 1-Phenyl-3-((tetrahydro-2H-pyran-4-yl)methyl)-1-(4-(5-(trifluoromethyl)-1,3,4-oxadiazol-2-yl)benzyl)urea] are 21 fold and 472 nM.
On to `O=C(N1CCN(c2ccccc2)CC1)N(Cc1ccc(-c2nnc(C(F)(F)F)o2)cc1)c1ccccc1` [Compound 21358, N,4-diphenyl-N-(4-(5-(trifluoromethyl)-1,3,4-oxadiazol-2-yl)benzyl)piperazine-1-carboxamide], for which the “HDAC6 selectivity (fold)” value is 10 fold and the IC50 was determined as 1050 nM.
On the same counts, the results for `O=C(N1CC=C(c2ccccc2)CC1)N(Cc1ccc(-c2nnc(C(F)(F)F)o2)cc1)c1ccccc1` [Compound 21359, N,4-diphenyl-N-(4-(5-(trifluoromethyl)-1,3,4-oxadiazol-2-yl)benzyl)-3,6-dihydropyridine-1(2H)-carboxamide] are 4 fold and 2280 nM.
On the same counts, the results for `O=C(N1CCS(=O)(=O)CC1)N(Cc1ccc(-c2nnc(C(F)F)o2)cc1)c1ccccc1` [Compound 21360, N-(4-(5-(difluoromethyl)-1,3,4-oxadiazol-2-yl)benzyl)-N-phenylthiomorpholine-4-carboxamide 1,1-dioxide] are 282 fold and 35.4 nM.
On the same counts, the results for `O=C(N1CCS(=O)(=O)CC1)N(Cc1ccc(-c2nnc(C(F)(F)F)o2)cc1)c1ccccc1` [Compound 21361, N-phenyl-N-(4-(5-(trifluoromethyl)-1,3,4-oxadiazol-2-yl)benzyl)thiomorpholine-4-carboxamide 1,1-dioxide] are 147 fold and 67.8 nM.
Regarding `O=C(N1CCNCC1)N(Cc1ccc(-c2nnc(C(F)(F)F)o2)cc1)c1ccccc1` [Compound 21362, N-phenyl-N-(4-(5-(trifluoromethyl)-1,3,4-oxadiazol-2-yl)benzyl)piperazine-1-carboxamide], the “HDAC6 selectivity (fold)” value was found to be 180 fold and the IC50 turned out to be 55.7 nM.
Regarding `CS(=O)(=O)N1CCN(C(=O)N(Cc2ccc(-c3nnc(C(F)(F)F)o3)cc2)c2ccccc2)CC1` [Compound 21363, 4-(Methylsulfonyl)-N-phenyl-N-(4-(5-(trifluoromethyl)-1,3,4-oxadiazol-2-yl)benzyl)piperazine-1-carboxamide], the “HDAC6 selectivity (fold)” value was found to be 118 fold and the IC50 stood at 84.8 nM.
Consider `CC(=O)N1CCN(C(=O)N(Cc2ccc(-c3nnc(C(F)(F)F)o3)cc2)c2ccccc2)CC1` [Compound 21364, 4-Acetyl-N-phenyl-N-(4-(5-(trifluoromethyl)-1,3,4-oxadiazol-2-yl)benzyl)piperazine-1-carboxamide], for which the “HDAC6 selectivity (fold)” value is recorded as 108 fold and the IC50 was 92.4 nM.
As to `CC(C)C(=O)N1CCN(C(=O)N(Cc2ccc(-c3nnc(C(F)(F)F)o3)cc2)c2ccccc2)CC1` [Compound 21365, 4-Isobutyryl-N-phenyl-N-(4-(5-(trifluoromethyl)-1,3,4-oxadiazol-2-yl)benzyl)piperazine-1-carboxamide], the “HDAC6 selectivity (fold)” value worked out at 69 fold and the IC50 was 145 nM.
As to `CCC(=O)N1CCN(C(=O)N(Cc2ccc(-c3nnc(C(F)(F)F)o3)cc2)c2ccccc2)CC1` [Compound 21366, N-phenyl-4-propionyl-N-(4-(5-(trifluoromethyl)-1,3,4-oxadiazol-2-yl)benzyl)piperazine-1-carboxamide], the “HDAC6 selectivity (fold)” value was determined as 79 fold and the IC50 amounted to 126 nM.
The matching figures for `O=C(N1CCN(C(=O)C(F)(F)F)CC1)N(Cc1ccc(-c2nnc(C(F)(F)F)o2)cc1)c1ccccc1` [Compound 21367, N-phenyl-4-(2,2,2-trifluoroacetyl)-N-(4-(5-(trifluoromethyl)-1,3,4-oxadiazol-2-yl)benzyl)piperazine-1-carboxamide]: 43 fold and 234 nM.
With `O=C(NCc1ccccc1)N(Cc1ccc(-c2nnc(C(F)(F)F)o2)cc1)c1ccccc1` [Compound 21368, 3-Benzyl-1-phenyl-1-(4-(5-(trifluoromethyl)-1,3,4-oxadiazol-2-yl)benzyl)urea], the “HDAC6 selectivity (fold)” value worked out at 24 fold and the IC50 came out at 420 nM.
The matching figures for `O=C(N1CCS(=O)(=O)CC1)N(Cc1ccc(-c2nnc(C(F)(F)F)o2)cc1F)c1ccccc1` [Compound 21369, N-(2-fluoro-4-(5-(trifluoromethyl)-1,3,4-oxadiazol-2-yl)benzyl)-N-phenylthiomorpholine-4-carboxamide 1,1-dioxide]: 179 fold and 56 nM.
Consider `O=C(N1CCS(=O)(=O)CC1)N(Cc1ccc(-c2nnc(C(F)F)o2)cc1F)c1ccccc1` [Compound 21370, N-(4-(5-(difluoromethyl)-1,3,4-oxadiazol-2-yl)-2-fluorobenzyl)-N-phenylthiomorpholine-4-carboxamide 1,1-dioxide], for which the “HDAC6 selectivity (fold)” value was found to be 400 fold and the IC50 turned out to be 25 nM.
For the compound `O=C(N1CCS(=O)(=O)CC1)N(Cc1ccc(-c2nnc(C(F)(F)F)o2)cc1)C1CCCC1` [Compound 21371, N-cyclopentyl-N-(4-(5-(trifluoromethyl)-1,3,4-oxadiazol-2-yl)benzyl)thiomorpholine-4-carboxamide 1,1-dioxide], the “HDAC6 selectivity (fold)” value came out at 9 fold and the IC50 was 1090 nM.
For the compound `O=C(N1CCS(=O)(=O)CC1)N(Cc1ccc(-c2nnc(C(F)(F)F)o2)cn1)c1ccccc1` [Compound 21372, N-phenyl-N-((5-(5-(trifluoromethyl)-1,3,4-oxadiazol-2-yl)pyridin-2-yl)methyl)thiomorpholine-4-carboxamide 1,1-dioxide], the “HDAC6 selectivity (fold)” value is on record as 132 fold and the IC50 turned out to be 76 nM.
On the same counts, the results for `O=C(N1CCS(=O)(=O)CC1)N(Cc1ccc(-c2nnc(C(F)F)o2)cn1)c1ccccc1` [Compound 21373, N-((5-(5-(difluoromethyl)-1,3,4-oxadiazol-2-yl)pyridin-2-yl)methyl)-N-phenylthiomorpholine-4-carboxamide 1,1-dioxide] are 500 fold and 20 nM.
The matching figures for `O=C(N1CCS(=O)(=O)CC1)N(Cc1ccccc1)Cc1ccc(-c2nnc(C(F)(F)F)o2)cc1` [Compound 21374, N-benzyl-N-(4-(5-(trifluoromethyl)-1,3,4-oxadiazol-2-yl)benzyl)thiomorpholine-4-carboxamide 1,1-dioxide]: 10 fold and 1010 nM.
